The source of these data is patent US6747058B1.

In brackets after ≈: the same amount, converted by molar mass.

The nature of data set [1]: Pharmacokinetics (tmax) after intravenous and nebulizer inhalation administration, dog. The format is in vivo. The following applies: for Tmax at 14 day / Tmax: blood; for Tmax at 14 day: multiple dose (14 day). Here is the method:
(§1) Two animal species, rat and dog, are administered the formulation in a 14 day multiple dose inhalation study with a nebulizer. Results from the pharmacokinetic portion of the study indicate comparability between tmax values found for intravenous and inhaled delivery.

For data set [2] the following is noted: cited from earlier work.
Data set [3] is described as follows: Pharmacokinetics (tmax) after intravenous and nebulizer inhalation administration, rat. It is filed as in vivo. The following applies: blood; for Tmax: single dose; for Tmax at 14 day: multiple dose (14 day). Here is the method:
as §1

What is called Tmax is the time from dosing to the highest level. As for `CCCCCc1cc(O)c2c(c1)OC(C)(C)[C@@H]1CCC(C)=C[C@@H]21`, the App. calc. tmax in data set [1] (IV, 1 mg/kg, single dose, tmax minus duration of exposure) is 1.9 min. Besides, the Tmax at 14 day in data set [1] (inhaled or intranasal, 2 mg/kg, inhalation, 2 mg/kg, 8 minutes exposure, read-out: Average tmax (converted)) is 10.2 min; in data set [1] (inhaled or intranasal, 2 mg/kg, inhalation, 2 mg/kg, 8 minutes exposure, tmax minus duration of exposure, read-out: App. calc. tmax (converted)), 2.2 min; in data set [1] (inhaled or intranasal, 5 mg/kg, inhalation, 5 mg/kg, 20 minutes exposure, read-out: Average tmax (converted)), 22.2 min; in data set [1] (inhaled or intranasal, 5 mg/kg, inhalation, 5 mg/kg, 20 minutes exposure, tmax minus duration of exposure, read-out: App. calc. tmax (converted)) it was 2.2 min; in data set [1] (inhaled or intranasal, 15 mg/kg, inhalation, 15 mg/kg, 60 minutes exposure, read-out: Average tmax (converted)), 66 min; in data set [1] (inhaled or intranasal, 15 mg/kg, inhalation, 15 mg/kg, 60 minutes exposure, tmax minus duration of exposure, read-out: App. calc. tmax (converted)), 6 min. For the same compound, the time of peak concentration (Tmax) at 14 day in data set [3] (inhaled or intranasal, 2 mg/kg, inhalation, 2 mg/kg, 5 minutes exposure, read-out: Average tmax (converted)) was 6 min; in data set [3] (inhaled or intranasal, 2 mg/kg, inhalation, 2 mg/kg, 5 minutes exposure, tmax minus duration of exposure, read-out: App. calc. tmax (converted)), 1 min; in data set [3] (inhaled or intranasal, 5 mg/kg, inhalation, 5 mg/kg, 15 minutes exposure, read-out: Average tmax (converted)), 17.4 min; in data set [3] (inhaled or intranasal, 5 mg/kg, inhalation, 5 mg/kg, 15 minutes exposure, tmax minus duration of exposure, read-out: App. calc. tmax (converted)), 2.4 min; in data set [3] (inhaled or intranasal, 15 mg/kg, inhalation, 15 mg/kg, 45 minutes exposure, read-out: Average tmax (converted)), 46.2 min; in data set [3] (inhaled or intranasal, 15 mg/kg, inhalation, 15 mg/kg, 45 minutes exposure, tmax minus duration of exposure, read-out: App. calc. tmax (converted)) it was 1.2 min. The Tmax is 15.6 min in data set [1] (inhaled or intranasal, 2 mg/kg, inhalation, 2 mg/kg, 8 minutes exposure, single dose, read-out: Average tmax (converted)); 7.6 min in data set [1] (inhaled or intranasal, 2 mg/kg, inhalation, 2 mg/kg, 8 minutes exposure, single dose, tmax minus duration of exposure, read-out: App. calc. tmax (converted)); 1.8 min in data set [1] (iv, 1 mg/kg, IV, 1 mg/kg, single dose, read-out: Average tmax (converted)); 1.8 min in data set [1] (iv, 1 mg/kg, IV, 1 mg/kg, single dose, tmax minus duration of exposure, read-out: App. calc. tmax (converted)); 5.7 min in data set [3] (inhaled or intranasal, 0.5 mg/kg, inhalation, 0.5 mg/kg, 1.25 minutes exposure, read-out: Average tmax (converted)); 4.45 min in data set [3] (inhaled or intranasal, 0.5 mg/kg, inhalation, 0.5 mg/kg, 1.25 minutes exposure, tmax minus duration of exposure, read-out: App. calc. tmax (converted)). For the same compound, the Tmax is 33.3 min in data set [3] (inhaled or intranasal, 4.6 mg/kg, inhalation, 4.6 mg/kg, 15 minutes exposure, read-out: Average tmax (converted)); 18.3 min in data set [3] (inhaled or intranasal, 4.6 mg/kg, inhalation, 4.6 mg/kg, 15 minutes exposure, tmax minus duration of exposure, read-out: App. calc. tmax (converted)); 2.1 min in data set [3] (iv, 2 mg/kg, IV, 2 mg/kg, read-out: Average tmax (converted)); 2.1 min in data set [3] (iv, 2 mg/kg, IV, 2 mg/kg, tmax minus duration of exposure, read-out: App. calc. tmax (converted)). Moreover, the solubility in water in data set [2] is 3000 µg/mL (≈ 9.54 mM).
